Results as given in article PMC12794084, “Radiosynthesis and Preclinical Evaluation of a Novel ^11C‑Labeled Pyrazolopyrimidine Derivative for Positron Emission Tomography Imaging of Phosphodiesterase 2A” (ACS Medicinal Chemistry Letters, 2025).
Where two headings read alike, the source gives them in different places. One block for each compound: values may come before it.

Legend:
[1] = molecular target: T1, PDE2A (Rattus norvegicus, UniProt Q01062); assay: In vitro autoradiography on SD rat brain sections; assay type: binding; conditions: co-incubation with 1 μM blocker
T1 construct: we first conducted in vitro autoradiography studies on SD rat brain sections; from tissue; host or cells: male Sprague-Dawley rat brain sections (20 μm)
T1 sequence (Q01062 1-928): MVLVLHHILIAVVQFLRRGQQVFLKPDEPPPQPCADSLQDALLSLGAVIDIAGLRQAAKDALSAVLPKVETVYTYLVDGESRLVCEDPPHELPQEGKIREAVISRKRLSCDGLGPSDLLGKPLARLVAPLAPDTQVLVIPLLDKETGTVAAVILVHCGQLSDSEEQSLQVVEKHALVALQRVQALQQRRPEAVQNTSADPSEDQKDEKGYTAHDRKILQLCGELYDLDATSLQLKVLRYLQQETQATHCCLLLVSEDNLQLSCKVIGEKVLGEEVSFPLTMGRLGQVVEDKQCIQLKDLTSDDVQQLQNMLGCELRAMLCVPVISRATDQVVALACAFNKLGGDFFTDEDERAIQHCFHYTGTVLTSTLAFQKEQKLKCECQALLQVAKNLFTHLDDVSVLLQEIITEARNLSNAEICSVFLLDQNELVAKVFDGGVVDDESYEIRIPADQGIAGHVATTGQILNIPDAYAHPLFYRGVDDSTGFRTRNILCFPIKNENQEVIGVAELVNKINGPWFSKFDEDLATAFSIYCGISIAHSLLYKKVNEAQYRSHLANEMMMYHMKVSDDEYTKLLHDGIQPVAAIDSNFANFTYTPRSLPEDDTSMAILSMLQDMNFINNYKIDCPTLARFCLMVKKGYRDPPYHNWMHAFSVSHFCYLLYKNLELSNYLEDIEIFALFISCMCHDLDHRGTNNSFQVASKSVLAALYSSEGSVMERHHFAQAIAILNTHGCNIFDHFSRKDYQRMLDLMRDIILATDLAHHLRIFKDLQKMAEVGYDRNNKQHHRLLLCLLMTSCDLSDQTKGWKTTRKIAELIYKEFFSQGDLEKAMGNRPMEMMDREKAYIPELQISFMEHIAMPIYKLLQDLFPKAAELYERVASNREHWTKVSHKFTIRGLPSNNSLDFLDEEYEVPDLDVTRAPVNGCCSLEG
Method: After incubation, sections were washed three times (2 min each) with prechilled buffer and briefly rinsed in cold distilled water (10 s). The slices were then air-dried and placed on imaging screens for 60 min before being scanned using a BAS5000 system (Fujifilm).

[2] = Ex vivo radiometabolite analysis in SD rats; conditions: SD rat
Text: Brain and plasma samples were rapidly collected and processed following previously reported procedures.

[3] = Ex vivo whole-body biodistribution in ddY mice; design: species or system mouse; conditions: 60 min postinjection, i.v.
Method: Decay-corrected radioactivity in each organ was measured using a Wizard automatic gamma counter (PerkinElmer, USA).

[4] = Dynamic PET imaging in SD rats; assay type: in vivo; conditions: SD rat, baseline
Method: Dynamic PET imaging was performed using an Inveon PET scanner (Siemens). […] Images were reconstructed using a Hanning filter with a Nyquist cutoff of 0.5 cycles/pixel, with the following framing: 4 × 1 min, 8 × 2 min, and 8 × 5 min. Data analysis was performed using PMOD version 3.4.

[5] = molecular target: PDE2A (Homo sapiens, UniProt O00408); conditions: cited from earlier work
Chain of PDE2A (Homo sapiens, UniProt O00408) (O00408 whole entry): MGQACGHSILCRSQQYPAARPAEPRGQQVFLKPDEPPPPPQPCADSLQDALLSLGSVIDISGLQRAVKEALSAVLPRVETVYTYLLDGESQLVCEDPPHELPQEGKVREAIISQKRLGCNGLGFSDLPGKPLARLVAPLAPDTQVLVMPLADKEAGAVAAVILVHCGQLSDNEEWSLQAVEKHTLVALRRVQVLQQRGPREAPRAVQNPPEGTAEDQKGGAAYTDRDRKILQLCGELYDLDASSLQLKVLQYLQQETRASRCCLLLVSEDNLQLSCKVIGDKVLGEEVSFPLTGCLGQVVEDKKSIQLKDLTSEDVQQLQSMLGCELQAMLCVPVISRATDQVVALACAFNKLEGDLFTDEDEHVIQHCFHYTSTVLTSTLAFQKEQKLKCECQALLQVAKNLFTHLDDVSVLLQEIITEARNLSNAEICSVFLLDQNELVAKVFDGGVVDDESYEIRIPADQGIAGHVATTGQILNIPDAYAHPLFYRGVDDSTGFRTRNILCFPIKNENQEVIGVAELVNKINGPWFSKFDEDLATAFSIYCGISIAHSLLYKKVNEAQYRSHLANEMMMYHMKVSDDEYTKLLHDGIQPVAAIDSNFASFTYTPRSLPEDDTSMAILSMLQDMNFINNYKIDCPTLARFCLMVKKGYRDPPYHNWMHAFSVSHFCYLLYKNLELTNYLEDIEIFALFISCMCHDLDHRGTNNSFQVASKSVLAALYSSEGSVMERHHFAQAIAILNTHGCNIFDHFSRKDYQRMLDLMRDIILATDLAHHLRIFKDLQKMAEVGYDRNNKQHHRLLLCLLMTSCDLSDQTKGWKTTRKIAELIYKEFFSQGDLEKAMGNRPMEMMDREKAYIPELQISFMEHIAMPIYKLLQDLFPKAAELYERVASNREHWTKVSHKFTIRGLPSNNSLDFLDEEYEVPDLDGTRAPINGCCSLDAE

[6] = logD by shake flask method with LC-MS/MS analysis; assay type: physicochemical
[7] = Unbound brain fraction; assay type: in vitro ADME

SMILES: COc1ccc(Cc2nn3c([C@@H](CCCc4ccccc4)[C@@H](C)O)nc(C)c3c(=O)[nH]2)cc1OC [BAY 60-7550]
blocking effect on [11C]1 signal in autoradiography [1]: significantly reduced the radiotracer signal in PDE2A-rich regions

SMILES: Cn1ncc(-c2nn(C)c3ncnc(N4CCC4)c23)c1-c1ccc(C(F)(F)F)cc1 [PF-05085727]
blocking effect on [11C]1 signal in autoradiography [1]: significantly reduced the radiotracer signal in PDE2A-rich regions

SMILES: Cc1nc(NC2(c3ccc(C(F)(F)F)cc3)CC2)c2cnn([11CH3])c2n1 [[^11C]1]
% of unchanged form in brain ([2]; 10 min postinjection): 97% | % of unchanged form in plasma ([2]; 10 min postinjection): 54% | % of unchanged form in brain ([2]; 30 min postinjection): 86% | % of unchanged form in plasma ([2]; 30 min postinjection): 34% | small intestine uptake [3]: 11 ± 1.5 % ID/g | brain distribution in summed PET images ([4]; 3–20 min): homogeneous distribution | SUVmax (brain uptake) ([4]; at 2 min postinjection): 1.65 | brain SUV ([4]; by 20 min): below 0.5

SMILES: Cc1nc(-c2cnn(C)c2-c2ccc(C(F)(F)F)cc2)c2c(N3CC([18F])C3)ncnn12 [[^18F]PF-05270430]
IC50 ([5]; literature PET radioligands): 0.5 nM

SMILES: COc1ccc2nnc3c(C)nc(-c4cc(OCCCC[18F])ccc4F)n3c2n1 [[^18F]TA4]
IC50 ([5]; triazine scaffold tracers, ref Schröder et al.): 7.3 nM

logD [6]: 3.88 | f u brain [7]: 7.2%
SMILES: Cc1nc(NC2(c3ccc(C(F)(F)F)cc3)CC2)c2cnn(C)c2n1 [compound 1, 1,6-Dimethyl-N-(1-(4-(trifluoromethyl)-phenyl)-cyclopropyl)-1H-pyrazolo[3,4-d]-pyrimidin-4-amine]
